Measurements published in patent US20240287065A1, “COMPOUND AS CDK KINASE INHIBITOR AND USE THEREOF” (TYK MEDICINES (ZHENGZHOU) , INC., priority 2021, published 2024).

Assays:
T47D cells = test: Cell proliferation inhibition assay (MTT, 7 days); type: cell-based; conditions: Homo sapiens, 168 h, 7 days incubation
Protocol: (§1) MCF7, T47D, OVCAR3 and HCC1806 cells were inoculated in 96-well plates at 3000, 3000, 2500, and 2000 cells/well, respectively, and cultured overnight at 37° C., 5% C02 incubator.
(§2) 1. […] Then 2.5 μl of the stock solution was dissolved in 497.5 μl of DMSO-free medium, and then a 3-fold serial gradient dilution was performed with 0.1% DMSO medium for a total of 9 concentrations, and the concentrations of the compounds after dilution were as follows: • 10000 nM, 3333.33 nM, 1111.11 nM, 370.34 nM, 123.45 nM, 41.15 nM, 13.72 nM, 4.57 nM, and 1.52 nM. • b) After fully mixing, 20 μL of compound solutions were added into cell culture plates containing 80 μL of cells respectively, with 4 replicate wells for each concentration. • c) The cells were transferred to an incubator and incubated for 7 days, and exchanged with fresh culture medium containing the same concentration of compounds when incubated to day 4. 2. MTT assay • a) The cell culture plate was taken out and 10 μL of 5 mg/ml MTT was added to the hood. • b) The cell culture plate was put back into the incubator and continued to incubate for 3 hours. • c) The cell culture plate was taken out to remove the culture medium, and 100 μL of isopropanol (0.4 mMHCl, 0.4% NP40) was added to the plate, and the plate was shaken on a shaker at room temperature for 30 minutes and read at 570 nm. 3. Data analysis
(§3) The survival rate (% Cell Survival) was calculated using the following equation:
(§4) % Cell Survival=100%×(OD_Sample−OD_LCave)/(OD_HC−OD_LCave) • OD_HC: 0.1‰ cell readings of DMSO control • OD_Sample: cell readings of compound addition • OD_LC: readings of blank medium • Analyed by Prizm: Dose-response-Inhibition Log(inhibitor) vs response (three parameters for the best fit)
(§5) IC50 (nM) values were calculated by concentration-response curve fitting.

HCC1806 cells = test: Cell proliferation inhibition assay (MTT, 7 days); type: cell-based; conditions: Homo sapiens, HCC1806, 168 h, HCC1086 [sic], 7 days incubation
Protocol: as §1, §2, §3, §4, §5

OVCAR3 cells = test: Cell proliferation inhibition assay (MTT, 7 days); type: cell-based; conditions: Homo sapiens, OVCAR-3, 168 h, 7 days incubation
Protocol: as §1, §2, §3, §4, §5

MCF7 cells = test: Cell proliferation inhibition assay (MTT, 7 days); type: cell-based; conditions: Homo sapiens, 168 h, 7 days incubation
Protocol: as §1, §2, §3, §4, §5

CDK2/CycE1 = CDK2/CycE1 (Homo sapiens, UniProt P24941); test: Enzyme activity test; type: biochemical;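 note: values come from the source column headed CDK2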
Protocol: (§6) • 1. The test compounds and pabocinib were configured into a […] solution of DMSO; • 2. 20 nL of stock solution was transferred to a 384-well plate using Echo550. DMSO was used as a blank control.
(§7) • 1. according to the following table to prepare 1.3X enzyme solution containing enzyme, substrate and cofactor; • 2. 15 μL of 1.3X enzyme solution was added to each well and the mixture was incubated for 30 min at room temperature; • 3. 5 μL of ATP solution was added to initiate the reaction. The final volume of each well was 20 μL; • 4. After incubation for 150 min at room temperature, 75 μL of termination buffer solution was added to terminate the experiment; • 5. The samples were analyzed using EZ reader.
(§8) The % inhibition was calculated using the following equation
(§9) The one treated with DMSO is the positive control (PC)
(§10) The one without enzyme is the negative control (NC)
(§11) % Inhibition=100-100*((CRPC−CRsample)/(CRPC−CRNC))

CDK4/CycD3 = CDK4/CycD3 (Homo sapiens, UniProt P11802); test: Enzyme activity test; type: biochemical;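 note: values come from the source column headed CDK4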
Sequence of CDK4/CycD3 (P11802 whole entry, species assumed): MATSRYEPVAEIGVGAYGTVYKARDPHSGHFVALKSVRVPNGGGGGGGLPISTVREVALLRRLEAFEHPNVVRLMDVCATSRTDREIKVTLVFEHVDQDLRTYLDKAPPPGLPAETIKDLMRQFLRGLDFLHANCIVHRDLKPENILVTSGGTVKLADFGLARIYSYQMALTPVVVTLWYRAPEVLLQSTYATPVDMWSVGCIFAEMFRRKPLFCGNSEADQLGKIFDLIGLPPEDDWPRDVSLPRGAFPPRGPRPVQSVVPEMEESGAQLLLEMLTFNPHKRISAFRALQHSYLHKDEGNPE
Sequence of CDK4/CycD3 (P30281 whole entry partner, species assumed): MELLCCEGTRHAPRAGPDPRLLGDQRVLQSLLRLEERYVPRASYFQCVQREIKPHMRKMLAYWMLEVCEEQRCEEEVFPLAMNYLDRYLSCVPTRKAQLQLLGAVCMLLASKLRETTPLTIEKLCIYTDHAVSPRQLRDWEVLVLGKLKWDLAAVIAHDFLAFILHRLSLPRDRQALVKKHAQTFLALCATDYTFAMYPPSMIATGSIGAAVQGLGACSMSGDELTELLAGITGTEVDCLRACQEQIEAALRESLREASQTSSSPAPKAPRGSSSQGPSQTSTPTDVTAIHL
Protocol: as §6, §7, §8, §9, §10, §11

| Structure (SMILES) | IC50 (T47D cells) [nM] | IC50 (HCC1806 cells) [nM] | IC50 (OVCAR3 cells) [nM] | IC50 (MCF7 cells) [nM] | IC50 (CDK2/CycE1) [nM] | IC50 (CDK4/CycD3) [nM] |
| --- | --- | --- | --- | --- | --- | --- |
| C[C@@]1(O)CCC[C@H]1n1c(=O)c(OC(F)F)cc2cnc(NC3CCN(S(=O)(=O)c4cccc(C(F)(F)F)c4)CC3)nc21 [Example 20] | 50 to 5200 | 200 to 51000 | 50 to 5200 | 200 to 51000 |  |  |
| C[C@@]1(O)CCC[C@H]1n1c(=O)c(OC(F)F)cc2cnc(NC3CCN(S(=O)(=O)c4cc(F)c(F)cc4F)CC3)nc21 [Example 21] | 50 to 5200 | 200 to 51000 | 50 to 5200 | 200 to 51000 |  |  |
| CCCS(=O)(=O)N1CCC(Nc2ncc3cc(OC(F)F)c(=O)n([C@@H]4CCC[C@@]4(C)O)c3n2)CC1 [Example 30] | 50 to 5200 | 50 to 5200 | 50 to 5200 | 50 to 5200 |  |  |
| [2H]C([2H])([2H])Oc1ccc(S(=O)(=O)N2CCC(Nc3ncc4cc(OC(F)F)c(=O)n([C@@H]5CCC[C@@]5(C)O)c4n3)CC2)cc1 [Example 31] | ≤ 50 | ≤ 50 | ≤ 50 | ≤ 50 | < 10 | < 10 |
| C[C@@]1(O)CCC[C@H]1n1c(=O)c(OC(F)F)cc2cnc(NC3CCN(S(=O)(=O)CCC#N)CC3)nc21 [Example 33] | 50 to 5200 | 200 to 51000 | 50 to 5200 | 50 to 5200 | < 10 |  |
| CCOc1ccc(S(=O)(=O)N2CCC(Nc3ncc4cc(OC(F)F)c(=O)n([C@@H]5CCC[C@@]5(C)O)c4n3)CC2)cc1 [Example 34] | ≤ 50 | ≤ 50 | ≤ 50 | ≤ 50 |  |  |
| COc1ccc(S(=O)(=O)N2CCC(Nc3ncc4cc(OC(F)F)c(=O)n([C@@H]5CCC[C@@]5(C)O)c4n3)CC2)cn1 [Example 36] | ≤ 50 | ≤ 50 | ≤ 50 | ≤ 50 | < 10 | < 10 |
| COc1ncccc1S(=O)(=O)N1CCC(Nc2ncc3cc(OC(F)F)c(=O)n([C@@H]4CCC[C@@]4(C)O)c3n2)CC1 [Example 37] | ≤ 50 | ≤ 50 | ≤ 50 |  | < 10 | < 10 |
| C[C@@]1(O)CCC[C@H]1n1c(=O)c(OC(F)F)cc2cnc(NC3CCN(S(=O)(=O)CC#N)CC3)nc21 [Example 38] |  | 50 to 5200 |  | ≤ 50 |  |  |
| CCn1cc(S(=O)(=O)N2CCC(Nc3ncc4cc(OC(F)F)c(=O)n([C@@H]5CCC[C@@]5(C)O)c4n3)CC2)cn1 [Example 39] |  | ≤ 50 |  | ≤ 50 |  |  |
| C[C@@]1(O)CCC[C@H]1n1c(=O)c(OC(F)F)cc2cnc(NC3CCN(S(=O)(=O)CCC(F)(F)F)CC3)nc21 [Example 40] | 50 to 5200 | 50 to 5200 | ≤ 50 |  | < 10 | < 10 |
| C[C@@]1(O)CCC[C@H]1n1c(=O)c(OC(F)F)cc2cnc(NC3CCN(S(=O)(=O)C4CCC4)CC3)nc21 [Example 42] | ≤ 50 | 50 to 5200 | ≤ 50 | ≤ 50 | < 10 | < 10 |
| CCS(=O)(=O)N1CCC(Nc2ncc3cc(OC(F)F)c(=O)n([C@@H]4CCC[C@@]4(C)O)c3n2)CC1 [Example 44] | ≤ 50 | 50 to 5200 | ≤ 50 | ≤ 50 | < 10 | < 10 |
| C[C@@]1(O)CCC[C@H]1n1c(=O)c(OC(F)F)cc2cnc(N[C@@H]3CCOC[C@H]3O)nc21 [Example 45] |  |  |  |  | 10 to 100 | 10 to 100 |
| C[C@@]1(O)CCC[C@H]1n1c(=O)c(OC(F)F)cc2cnc(NC3CCN(S(=O)(=O)C4CC(F)(F)C4)CC3)nc21 [Example 46] | ≤ 50 | 50 to 5200 | ≤ 50 | ≤ 50 | < 10 | < 10 |
| C[C@@]1(O)CCC[C@H]1n1c(=O)c(OC(F)F)cc2cnc(NC3CCN(S(=O)(=O)C4CCCC4)CC3)nc21 [Example 48] | 50 to 5200 | 50 to 5200 | ≤ 50 | 50 to 5200 | < 10 | < 10 |
| C[C@@]1(O)CCC[C@H]1n1c(=O)c(OC(F)F)cc2cnc(NC3CCN(S(=O)(=O)C4CCCCC4)CC3)nc21 [Example 49] | 50 to 5200 | 200 to 51000 | 50 to 5200 |  |  |  |
| C[C@@]1(O)CCC[C@H]1n1c(=O)c(OC(F)F)cc2cnc(NC3CCN(S(=O)(=O)C4CCC(=O)CC4)CC3)nc21 [Example 53] | 50 to 5200 | 200 to 51000 | ≤ 50 | 200 to 51000 |  |  |
| C[C@@]1(O)CCC[C@H]1n1c(=O)c(OC(F)F)cc2cnc(NC3CCN(S(=O)(=O)C4CCC(F)(F)CC4)CC3)nc21 [Example 54] | 50 to 5200 | 200 to 51000 | ≤ 50 |  | < 10 | 10 to 100 |
| C[C@@]1(O)CCC[C@H]1n1c(=O)c(OC(F)F)cc2cnc(NC3CCN(S(=O)(=O)C4CCC(F)CC4)CC3)nc21 (stereo partly shown) [Example 55] | ≤ 50 | 50 to 5200 | 50 to 5200 | ≤ 50 |  |  |
| C[C@@]1(O)CCC[C@H]1n1c(=O)c(OC(F)F)cc2cnc(NC3CCN(S(=O)(=O)C4CCC(O)CC4)CC3)nc21 (stereo partly shown) [Example 56] | 50 to 5200 | 200 to 51000 | 200 to 51000 | 50 to 5200 |  |  |
| C[C@@]1(O)CCC[C@H]1n1c(=O)c(OC(F)F)cc2cnc(NC3CCN(C(=O)C(F)(F)F)CC3)nc21 [Example 57] | 200 to 51000 | 200 to 51000 | 200 to 51000 |  |  |  |
| C[C@@]1(O)CCC[C@H]1n1c(=O)c(OC(F)F)cc2cnc(NC3CCN(S(=O)(=O)c4ccc(Cl)cc4)CC3)nc21 [Example 58] | 50 to 5200 | 200 to 51000 | 50 to 5200 | 50 to 5200 |  |  |
| C[C@@]1(O)CCC[C@H]1n1c(=O)c(OC(F)F)cc2cnc(NC3CCN(S(=O)(=O)c4cccc(Cl)c4)CC3)nc21 [Example 59] | 50 to 5200 | 50 to 5200 | 50 to 5200 | 50 to 5200 |  |  |
| CN1CCN(c2ccc(Nc3ncc4cc(OC(F)F)c(=O)n([C@@H]5CCC[C@@]5(C)O)c4n3)nc2)CC1 [Example 60] | ≤ 50 | ≤ 50 | ≤ 50 | ≤ 50 |  |  |
| CN1CCN(c2ccc(Nc3ncc4cc(OC(F)F)c(=O)n([C@@H]5CCC[C@@]5(C)O)c4n3)cc2)CC1 [Example 63] | 50 to 5200 | 50 to 5200 | ≤ 50 | ≤ 50 |  |  |
